Patent US20100330049A1, “METHOD FOR GENERATING ISLET BETA CELLS FROM DEDIFFERENTIATED EXOCRINE PANCREATIC CELLS” (Vrije Universiteit Brussel, priority 2008, published 2010)

Legend:
Type in all cases: cell-based, rat
acinar cells = test: acinar-to-beta cell conversion in monolayer culture with differentiation factors (immunocytochemical cell counts); details: for toxic effects on the epithelial monolayers: Jagged1 2 μg/ml, Dll4 5 μg/ml, 3 days culture; for beta cell neogenesis (acino-insular conversion): exposure of EGF and LIF treated cells to Notch1 ligands; for expression of Ngn3, Pdx1 and insulin / reduction of the number of newly formed beta cells: ligands immobilized on culture plates, EGF/LIF-treated acinar cells; for expression of Pdx1 during 72 h exposure to EGF and LIF (FIG. 2C) / expression of insulin during 72 h exposure to EGF and LIF (FIG. 2E) / re-expression of Ngn3 during 72 h exposure to EGF and LIF (FIG. 2A): n=7, compared to EGF and LIF controls
Text: Male 10-12 week old Wistar rats (Charles River Laboratories) weighing 250-300 g were used for the isolation of cells from the pancreas. Pancreata were partially dissociated with collagenase and exocrine acini were purified by centrifugal elutriation as published before (Rooman et al., 2000 Diabetologia 43:907-914). All animal experimentation was approved by the Ethical Committee of the Free University of Brussels.
Acinar cells were pre-cultured for 4 days in bacteriological Petri dishes (Nunc) in suspension culture in RPMI-1640 Glutamax-I medium supplemented with 10% fetal bovine serum (FBS, Invitrogen), penicillin (75 mg/l) (Continental Pharma) and antibiotics (Sigma, St Louis, Mo., USA). Geneticin Sulphate (50 μg/ml) (Sigma) was used to suppress fibroblast overgrowth in the culture. Medium was replaced daily during this pre-culture period. At the end of the pre-culture, cells were treated with alloxan (10 mM, Sigma) for 10 min at 37° C. to remove contaminating beta cells, and transferred to 24-well plates (Falcon, BD Biosciences) to form adherent cultures. Adherent monolayers were further cultured with RPMI supplemented with 1% FBS and antibiotics (controls). For growth factor stimulation of neogenesis this medium was supplemented with 50 ng/ml human recombinant epidermal growth factor (EGF) (Sigma,) and 40 ng/ml recombinant mouse leukemia inhibitory factor (LIF) (Sigma) (Baeyens et al. Diabetologia 48:49-57.). Stimulation of Notch signal transduction was performed using the recombinant human ligands Jagged1 (2 μg/ml, R&D Systems) and Dll4 (5 μg/ml, R&D Systems). For effective stimulation, the ligands were immobilized to the bottom of the multiwell plates prior to monolayer formation. Cell monolayers were analyzed after a culture period of 3 days in the latter media. […] Notch signaling inhibition was achieved using a recombinant form of the rat Notch1 extracellular domain (Notch1-EC, 10 μg/ml, R&D Systems). […] Proliferation was performed by bromo-deoxyuridin (BrdU) (Sigma) pulse labeling of 6 hours.
Immunocytochemical staining of the monolayers was performed directly in the 24-well plates. For this purpose, the cell monolayers were fixed for 10 min with 4% buffered formaldehyde followed by 20 min methanol (−20° C.) for cell permeabilization. Tissues were fixed with the same fixative for 4 hours and processed for paraffin embedding. Paraffin sections were used for immunostaining as described (Bouwens et al. 1994 Diabetes 43:1279-1283). Primary antibodies used in this study are polyclonal anti-insulin (C. Van Schravendijk, VUB, Brussels) (Bouwens et al. 1994 Diabetes 43:1279-1283; Bouwens and De 1996. J. Histochem. Cytochem. 44:947-951), polyclonal anti-rat C-peptide-I (O. D. Madsen, Hagedorn Research Institute, Gentofte, Denmark) (Blume et al. 1992. Mol. Endocrinol. 6:299-307), polyclonal anti-Pdx1 (O. D. Madsen) (Rooman et al. 2000 Diabetologia 43:907-914), polyclonal anti-Ngn3 (Schwitzgebel et al. 2000. Development 127:3533-3542), monoclonal anti-cytokeratin-20 (CK20) (Novocastra) (Bouwens et al. 1994 Diabetes 43:1279-1283; Bouwens and De 1996 J. Histochem. Cytochem. 44:947-951), monoclonal anti-synaptophysin (Novocastra), polyclonal anti-MafA (Bethyl Laboratories) (Nishimura et al. 2006 Dev. Biol. 293:526-539), polyclonal anti-Glut2 (Wak-Chemie), polyclonal anti-Mist1 (SF Konieczny) (Pin et al. 2000 Anat. Rec. 259:157-167), polyclonal anti-luciferase (Promega Benelux B. V.), polyclonal anti-IAPP (Advanced Chemtech), polyclonal anti-ChromograninA (Tebu-Bio), anti-BrdU (MP Biomedicals) and polyclonal anti-α-amylase (Sigma). Secondary antibodies conjugated with fluorescein isothiocyanate, tetramethylrodamine isothiocyanate or Cy5 (Jackson Immunoresearch) were used as described previously (Gu et al., 2002 Development 129:2447-2457). DNA was visualized using Hoechst 33342 (Invitrogen).

Notch1 mRNA = test: knockdown efficiency of shRNA viruses, quantitative RT-PCR: Notch1 mRNA; details: corrected for actin, normalized to control virus Le-Scrambled-DsRed, n = 3
Text: (§1) Specific RNAi target sequences were developed using dedicated software available through the Whitehead Institute for Biomedical Research website (http://jura.wi.mit.edu/bio/) (Yuan et al. 2004 Nucleic Acids Res. 32:W130-W134). Corresponding oligo DNA molecules (Invitrogen) were cloned in the BglII and HindIII sites of the pSuper.basic vector (Oligoengine). Insert-containing clones were PCR-selected and sequenced. DNA from clones containing correct inserts was cut with EcoRI-ClaI, which released a DNA fragment containing the H1 promoter and the cloned oligo duplex, which was subsequently subcloned in the EcoRI-ClaI sites of the pTrip vector containing a DsRed reporter (Wiznerowicz and Trono 2003, J. Virol. 77:8957-8961). Screening for RNAi activity of the constructs was performed as follows: AR42J-B13 cells were plated at 70% confluency in 24 well plates at day 0. After allowing the cells to attach, 500 ng DNA of the appropriate pTrip constructs was transfected per well. After an additional 24 hours, cells were processed for quantitative RT-PCR analysis, in which 500 ng total RNA was used per condition.
(§2) The data illustrated in Table 7 represent the efficiency of knockdown of the different shRNA viruses, measured by quantitative RT-PCR. All samples are corrected for RNA input (endogenous control: actin) and normalized to conditions transduced with control virus (Le-Scrambled-DsRed). […]

Hes1 mRNA = test: knockdown efficiency of shRNA viruses, quantitative RT-PCR: Hes1 mRNA; details: corrected for actin, normalized to control virus Le-Scrambled-DsRed, n = 3
Text: as §1, §2

Substance	toxic effects on the epithelial monolayers (acinar cells)	beta cell neogenesis (acino-insular conversion) (acinar cells)	expression of Ngn3, Pdx1 and insulin (acinar cells)	reduction of the number of newly formed beta cells (acinar cells) [%]	expression of Pdx1 during 72 h exposure to EGF and LIF (FIG. 2C) (acinar cells)	expression of insulin during 72 h exposure to EGF and LIF (FIG. 2E) (acinar cells)	re-expression of Ngn3 during 72 h exposure to EGF and LIF (FIG. 2A) (acinar cells)	Notch1 mRNA expression (Mean ± SEM) (Notch1 mRNA)	Hes1 mRNA expression (Mean ± SEM) (Hes1 mRNA)	higher number of insulin-positive cells (acinar cells; Notch1-EC added to EGF and LIF) [fold]	cells adopting a beta cell phenotype (acinar cells; acinar cell culture, 0.5% in control conditions)	proportion of cells positive for Ngn3, Pdx1 and insulin (acinar cells; excess Notch1-EC in culture medium with EGF and LIF)
Dll4: recombinant human Notch ligand, immobilized to the plate bottom	no toxic effects	near complete abrogation	strongly inhibited	80	prevents this expression	prevents this expression	almost completely abrogates this pattern					
Jagged1: recombinant human Notch ligand, immobilized to the plate bottom	no toxic effects	near complete abrogation	strongly inhibited	80	prevents this expression	prevents this expression	almost completely abrogates this pattern					
Le-Scrambled-DsRed: negative control RNAi lentivirus, shScrambled GGUAUCUACUAGAUGUACU (SEQ ID NO:3), DsRed reporter								100.0 ± 0.0	100.0 ± 0.0			
Notch1-EC: recombinant form of the rat Notch1 extracellular domain, Notch signaling inhibitor (R&D Systems)					amplifies the number of cells expressing Pdx1	amplifies the number of insulin-positive cells	enhances the potency of the differentiation factors			3	more than 30%	marked increase
